Tested on: 695427-040-R-J1-PDC complex spheroid viability
Test: Anticancer human tumor 695427-040-R-J1-PDC patient-derived colon adenocarcinoma cell line growth inhibition [RAS]
Details: for viability, T/C: stronger effect = lower value; active = viability on the fitted dose curve at most 10% of control; inactive = the rest
Description: RAS pathway inhibitors in Combinations in Complex Spheroids
A high-throughput screen of multi-cell type tumor spheroids was designed to identify active combinations of RAS pathway inhibitors and targeted small molecules. Complex spheroids include a stromal component modeled by human endothelial cells (HUVEC) and fibroblasts modeled by human mesenchymal stem cells (MSCs). The concentration ranges selected for each drug and investigational agent were based upon clinically achievable concentrations if the clinical Cmax of the agent was known.
Compounds. The drugs and investigational agents: abemaciclib (NSC768073), cobimetinib (NSC768068), divarasib (GDC6063, NSC841802), docetaxel (NSC628503), GDC-1971 (RLY-1971, NSC841576), gemcitabine (NSC613327), inavolisib (NSC800729), ipatasertib (NSC767898), KB-0742 (NSC834161), MRTX-1133 (NSC836407), osimertinib (NSC779217), RMC-4630 (NSC839698), RMC-6236 (NSC851965), RMC-6291 (NSC852671), Ro-3306 (NSC812927), sapanisertib (NSC764658), SN-38 (NSC673596), staurosporine (NSC755774), SY5609 (NSC837396), and tovorafenib (DAY101, NSC766906), were obtained from the National Cancer Institute (NCI) Developmental Therapeutics Program Chemical Repository. The FDA-approved anticancer drug set is available from the NCI Developmental Therapeutics Program. […] The stock solutions were prepared in dimethyl sulfoxide (DMSO, Sigma-Aldrich, St. Louis, MO, cat. D2650) at 800-fold the tested concentration and stored at -70 degrees C prior to their use. All drugs and investigational agents were tested over a range starting from a high concentration at or near the clinical Cmax and decreasing in half-log increments. If the clinical Cmax for an agent had not been determined, the highest concentration tested was 10 microM.
Cell Culture. All cells were maintained in an incubator at 37 degrees C and 5% CO2 with 95% humidity. The PDC lines were cultured according to standard operating procedures established by the NCI PDMR. All PDCs were thawed and cultured in Matrigel-coated flasks prepared with a working solution of 1X Ham's F-12 nutrient mix, without supplementation (Invitrogen, Waltham, MA, cat. 11765054), 100 U/mL penicillin-streptomycin (Invitrogen, cat. 15140122), and 2.5% Matrigel (Corning Inc., Corning, NY, cat. 354248) for the first three passages. The 362531-283-R-J2-PDC and 782815-120-R-J1-PDC lines were cultured in 6C/Colon 1B media, which includes advanced DMEM/F-12 (Thermo Fisher Scientific, cat. 12634028), 10 mM HEPES (Thermo Fisher Scientific, cat. 15630080), 1X GlutaMAX supplement (Thermo Fisher Scientific, cat. 35050061), 0.1 mg/mL primocin (InvivoGen, San Diego, CA, cat. ant-pm-2), 10% defined fetal bovine serum, heat inactivated (HyClone Laboratories Inc., Logan, UT, cat. SH30070.03HI), 50% L-WRN conditioned media (ATCC, cat. CRL-3276), 1.25 mM N-Acetyl-L-cysteine (Sigma-Aldrich, cat. A9165), 10 mM nicotinamide (Sigma-Aldrich, cat. N0636), 1X B-27 supplement (Thermo Fisher Scientific, cat. 17504044), 1X N-2 supplement (Thermo Fisher Scientific, cat. 17502048), 50 ng/mL human EGF (Thermo Fisher Scientific, cat. PHG0311), and 10 microM Y-27632 dihydrochloride (Tocris Bioscience, cat. 1254). The K12877-001-R-J1-PDC line was cultured in 6I media, which includes all 6C/Colon 1B media plus 10 ng/mL human FGF-10 (PeproTech, cat. 100-26), 1 ng/mL human FGF-2 (PeproTech, cat. 100-18B), 1 µM prostaglandin E2 (Tocris Bioscience, cat. 2296), […] hydrocortisone (Sigma-Aldrich, cat. H4001), and […] bovine insulin (Sigma-Aldrich, cat. I6634). The K86415-001-R-J1-PDC line was cultured in 6D media, which includes all 6C/Colon 1B media components minus the L-WRN conditioned media. The 485176-168-R4-J1-PDC was cultured in PANC media, which includes all 6C/Colon 1B media plus 100 ng/mL human FGF-10 (PeproTech, cat. 100-26), 500 nM SB-431542 (Selleckchem, cat. S1067), and 10 nM gastrin (Tocris Bioscience, cat. 3006). […]

[1] = curve of first compound, second compound 0.0316 µM
[2] = curve of first compound, second compound 0.1 µM
[3] = curve of first compound, second compound 0.316 µM
[4] = curve of first compound, second compound 1 µM
[5] = curve of first compound, second compound 3.16 µM
[6] = curve of first compound, second compound 10 µM
[7] = second compound 0.0316 µM, first compound 0.00316 µM
[8] = second compound 0.0316 µM, first compound 0.01 µM
[9] = second compound 0.0316 µM, first compound 0.0316 µM
[10] = second compound 0.0316 µM, first compound 0.1 µM
[11] = second compound 0.0316 µM, first compound 0.316 µM
[12] = second compound 0.0316 µM, first compound 1 µM
[13] = second compound 0.1 µM, first compound 0.00316 µM
[14] = second compound 0.1 µM, first compound 0.01 µM
[15] = second compound 0.1 µM, first compound 0.0316 µM
[16] = second compound 0.1 µM, first compound 0.1 µM
[17] = second compound 0.1 µM, first compound 0.316 µM
[18] = second compound 0.1 µM, first compound 1 µM
[19] = second compound 0.316 µM, first compound 0.00316 µM
[20] = second compound 0.316 µM, first compound 0.01 µM
[21] = second compound 0.316 µM, first compound 0.0316 µM
[22] = second compound 0.316 µM, first compound 0.1 µM
[23] = second compound 0.316 µM, first compound 0.316 µM
[24] = second compound 0.316 µM, first compound 1 µM
[25] = second compound 1 µM, first compound 0.00316 µM
[26] = second compound 1 µM, first compound 0.01 µM
[27] = second compound 1 µM, first compound 0.0316 µM
[28] = second compound 1 µM, first compound 0.1 µM
[29] = second compound 1 µM, first compound 0.316 µM
[30] = second compound 1 µM, first compound 1 µM
[31] = second compound 3.16 µM, first compound 0.00316 µM
[32] = second compound 3.16 µM, first compound 0.01 µM
[33] = second compound 3.16 µM, first compound 0.0316 µM
[34] = second compound 3.16 µM, first compound 0.1 µM
[35] = second compound 3.16 µM, first compound 0.316 µM
[36] = second compound 3.16 µM, first compound 1 µM
[37] = second compound 10 µM, first compound 0.00316 µM
[38] = second compound 10 µM, first compound 0.01 µM
[39] = second compound 10 µM, first compound 0.0316 µM
[40] = second compound 10 µM, first compound 0.1 µM
[41] = second compound 10 µM, first compound 0.316 µM
[42] = second compound 10 µM, first compound 1 µM
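Also: viability read after seven days of drug exposure.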

CC(=O)OC12COC1CC(O)C1(C)C(=O)C(O)C3=C(C)C(OC(=O)C(O)C(NC(=O)OC(C)(C)C)c4ccccc4)CC(O)(C(OC(=O)c4ccccc4)C21)C3(C)C (configuration not stated)
inactive: viability, T/C (compound 0.0316 µM) 71.6% [middle of 4 runs] | viability, T/C (compound 0.1 µM) 68.3% [middle of 4 runs] | viability, T/C (compound 0.316 µM) 72.2% [middle of 4 runs] | viability, T/C (compound 1 µM) 76.2% [middle of 4 runs] | viability, T/C (compound 10 µM) 90.3% [middle of 4 runs]
> 10000 nM: IC50 (curve of compound)

C=CC(=O)Nc1cc(Nc2nccc(-c3cn(C)c4ccccc34)n2)c(OC)cc1N(C)CCN(C)C + C#Cc1c(F)ccc2cc(O)cc(-c3ncc4c(N5CC6CCC(C5)N6)nc(OCC56CCCN5CC(F)C6)nc4c3F)c12
165 nM: IC50 [4]
346 nM: IC50 [1]
402 nM: IC50 [2]
240 nM: IC50 [3]
inactive: viability, T/C [7] 99.4% | viability, T/C [8] 92.1% | viability, T/C [9] 92.3% | viability, T/C [10] 69.6% | viability, T/C [11] 53.1% | viability, T/C [12] 31.5% | viability, T/C [13] 93.1% | viability, T/C [14] 100% | viability, T/C [15] 80.9% | viability, T/C [16] 69.9% | viability, T/C [17] 58.6% | viability, T/C [18] 29.2% | viability, T/C [19] 95.8% | viability, T/C [20] 81% | viability, T/C [21] 77.8% | viability, T/C [22] 61.5% | viability, T/C [23] 48.1% | viability, T/C [24] 27.6% | viability, T/C [25] 72.6% | viability, T/C [26] 79.7% | viability, T/C [27] 68.9% | viability, T/C [28] 59% | viability, T/C [29] 38.7% | viability, T/C [30] 23% | viability, T/C [31] 57.7% | viability, T/C [32] 55.1% | viability, T/C [33] 56.6% | viability, T/C [34] 42.6% | viability, T/C [35] 30.6% | viability, T/C [36] 20% | viability, T/C [37] 39.4% | viability, T/C [38] 41.5% | viability, T/C [39] 37.3% | viability, T/C [40] 32.4% | viability, T/C [41] 25.8% | viability, T/C [42] 15.7%
< 3.16 nM: IC50 [6]
50.7 nM: IC50 [5]

CC(Nc1ccc2c(c1)OCCn1cc(N3C(=O)OCC3C(F)F)nc1-2)C(N)=O (configuration not stated) + C#Cc1c(F)ccc2cc(O)cc(-c3ncc4c(N5CC6CCC(C5)N6)nc(OCC56CCCN5CC(F)C6)nc4c3F)c12
inactive: viability, T/C [9] 78.2% | viability, T/C [10] 69.5% | viability, T/C [11] 58.5% | viability, T/C [12] 52.1% | viability, T/C (second compound 0.0316 µM, first compound 3.16 µM) 47.9% | viability, T/C (second compound 0.0316 µM, first compound 10 µM) 40.1% | viability, T/C [15] 77% | viability, T/C [16] 69.7% | viability, T/C [17] 59.6% | viability, T/C [18] 49.9% | viability, T/C (second compound 0.1 µM, first compound 3.16 µM) 40.4% | viability, T/C (second compound 0.1 µM, first compound 10 µM) 35.4% | viability, T/C [21] 76.7% | viability, T/C [22] 67.1% | viability, T/C [23] 52% | viability, T/C [24] 39.9% | viability, T/C (second compound 0.316 µM, first compound 3.16 µM) 40.5% | viability, T/C (second compound 0.316 µM, first compound 10 µM) 30.3% | viability, T/C [27] 63.1% | viability, T/C [28] 54% | viability, T/C [29] 45.9% | viability, T/C [30] 34.8% | viability, T/C (second compound 1 µM, first compound 3.16 µM) 31.9% | viability, T/C (second compound 1 µM, first compound 10 µM) 23.1% | viability, T/C [33] 47.4% | viability, T/C [34] 38.3% | viability, T/C [35] 30.3% | viability, T/C [36] 23.9% | viability, T/C (second compound 3.16 µM, first compound 3.16 µM) 22% | viability, T/C (second compound 3.16 µM, first compound 10 µM) 16.9% | viability, T/C [39] 33.8% | viability, T/C [40] 22.1% | viability, T/C [41] 17.1% | viability, T/C [42] 13.6% | viability, T/C (second compound 10 µM, first compound 3.16 µM) 12% | viability, T/C (second compound 10 µM, first compound 10 µM) 10.9%
933 nM: IC50 [2]
< 31.6 nM: IC50 [5] | IC50 [6]
422 nM: IC50 [3]
168 nM: IC50 [4]
1550 nM: IC50 [1]

O=C(c1ccc(F)c(F)c1Nc1ccc(I)cc1F)N1CC(O)([C@@H]2CCCCN2)C1 + C#Cc1c(F)ccc2cc(O)cc(-c3ncc4c(N5CC6CCC(C5)N6)nc(OCC56CCCN5CC(F)C6)nc4c3F)c12
active: viability, T/C [12] 2.92% | viability, T/C [18] 2.78% | viability, T/C [24] 4.73% | viability, T/C [30] 3.39% | viability, T/C [35] 8.05% | viability, T/C [36] 2.3% | viability, T/C [41] 2.72% | viability, T/C [42] 1.31%
17.7 nM: IC50 [4]
inactive: viability, T/C [7] 93.3% | viability, T/C [8] 77% | viability, T/C [9] 55.7% | viability, T/C [10] 30.5% | viability, T/C [11] 15.2% | viability, T/C [13] 92.1% | viability, T/C [14] 65.7% | viability, T/C [15] 53.8% | viability, T/C [16] 30.9% | viability, T/C [17] 15.7% | viability, T/C [19] 82.9% | viability, T/C [20] 65.5% | viability, T/C [21] 52.6% | viability, T/C [22] 29.9% | viability, T/C [23] 17% | viability, T/C [25] 59.1% | viability, T/C [26] 53.4% | viability, T/C [27] 47% | viability, T/C [28] 23.4% | viability, T/C [29] 12.8% | viability, T/C [31] 52.2% | viability, T/C [32] 38.5% | viability, T/C [33] 23.7% | viability, T/C [34] 19.6% | viability, T/C [37] 30.1% | viability, T/C [38] 32.8% | viability, T/C [39] 22.5% | viability, T/C [40] 11.1%
40.4 nM: IC50 [1]
31.4 nM: IC50 [3]
31.5 nM: IC50 [2]
3.68 nM: IC50 [5]
< 3.16 nM: IC50 [6]

Source: PubChem BioAssay AID2060888 (Molecular Pharmacology Branch, DTP, NCI, 2025)
